This is an account of results in patent US6951882B2, “Substituted 4-phenyl-[1,3]-dioxanes” (Janssen Pharmaceutica N.V., priority 2002, dated 2005).

Each structure is given as a SMILES string.

In general, Ki refers to the equilibrium dissociation constant of an inhibitor or competing ligand from its target.

The target of the assay is T1, orexin-2 receptor (Homo sapiens, UniProt O43614).
T1 construct: expressed in transfected cells; host or cells: CHO-K1 (preferred) or HEK-293 recombinant clones
T1 sequence (O43614 1-444): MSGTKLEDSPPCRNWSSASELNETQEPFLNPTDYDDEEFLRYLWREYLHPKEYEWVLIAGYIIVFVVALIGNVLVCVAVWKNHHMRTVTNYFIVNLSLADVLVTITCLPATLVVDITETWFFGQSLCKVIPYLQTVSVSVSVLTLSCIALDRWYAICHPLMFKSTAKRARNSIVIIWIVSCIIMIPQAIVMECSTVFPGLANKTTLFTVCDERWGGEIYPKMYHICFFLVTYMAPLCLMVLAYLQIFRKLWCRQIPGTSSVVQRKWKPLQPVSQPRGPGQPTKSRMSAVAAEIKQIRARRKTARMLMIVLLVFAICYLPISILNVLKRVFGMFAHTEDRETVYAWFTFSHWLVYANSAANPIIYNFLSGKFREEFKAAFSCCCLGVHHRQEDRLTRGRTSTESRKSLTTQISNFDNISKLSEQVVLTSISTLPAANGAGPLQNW
Kind of assay: Orexin radioligand binding assay (125I-orexin A, adherent recombinant cells). To be noted: 125I-orexin A displacement, recombinant CHO-K1 or HEK-293 cells expressing the orexin receptor. As to the method:
The reaction was quenched with 100 μL of 10% w/v bovine serum albumin, then the products were pre-purified using Waters Maxi-Clean C18 cartridges (Alltech, San Jose, Calif.). The mobile phase for the reverse phase separations (pre-purification and gradient HPLC) was 0.1% TFA, and the eluent was 0.1% TFA in acetonitrile. After removing the acetonitrile from the Maxi-Clean cartridge eluent by lyophilization, the labeled compound was further purified by gradient HPLC using a Vydac (Hesperia, Calif.) analytical C18 HPLC column. A gradient of 2% acetonitrile/min was used and fractions were collected every 0.75 min at a flow rate of 1.5 mL/min.
Radioligand binding assays were performed in opaque, white 96-well tissue culture plates pretreated with poly-D-lysine (Bio-Coat plates, Becton Dickinson, Franklin Lakes, N.J.). Cells expressing the orexin receptor were seeded at 30,000 cells/well in 100 μL/well Ham's F12 with 10% heat inactivated fetal bovine serum, penicillin/streptomycin and 800 mg/L G418. […] In preparation for the binding assay, the cell culture medium was aspirated away, and the cells were gently washed with 100 μL-well binding buffer (Dulbecco's phosphate buffered saline containing 0.1% w/v bovine serum albumin). […] The assay was terminated by aspirating the liquid from the wells, washing the wells with iced binding buffer, aspirating the wells dry, adding 50 μL/well scintillation cocktail (MicroScint 40, Packard Biosciences, Meriden Conn.), and counting the plate(s) in a Packard TopCount scintillation counter. […] Data were analyzed using GraphPad Prizm software to calculate Ki values.
Turning to `Cc1cc(Br)ccc1NC(=O)N[C@H]1COC(C)(C)O[C@H]1c1ccccc1` [Example 2, 1-(4-Bromo-2-methyl-phenyl)-3-((4S,5S)-2,2-dimethyl-4-phenyl-[1,3]dioxan-5-yl)-urea], the Ki is 0.05 µM. With `Cc1ccc(Cl)c(NC(=O)N[C@H]2COC(C)(C)O[C@H]2c2ccccc2)c1` [Example 3, 1-(2-Chloro-5-methyl-phenyl)-3-((4S,5S)-2,2-dimethyl-4-phenyl-[1,3]dioxan-5-yl)-urea], the Ki came out at 0.027 µM. As for `CC1(C)OC[C@H](NC(=O)Nc2ccccc2I)[C@H](c2ccccc2)O1` [Example 6, 1-((4S,5S)-2,2-Dimethyl-4-phenyl-[1,3]dioxan-5-yl)-3-(2-iodo-phenyl)-urea], the inhibition constant Ki amounted to 0.07 µM. For the compound `CC1(C)OC[C@H](NC(=O)Nc2ccc(I)cc2)[C@H](c2ccccc2)O1` [Example 7, 1-((4S,5S)-2,2-Dimethyl-4-phenyl-[1,3]dioxan-5-yl)-3-(4-iodo-phenyl)-urea], the inhibition constant Ki is 0.045 µM.

For the compound `CC1(C)OC[C@H](NC(=O)Nc2ccccc2C(F)(F)F)[C@H](c2ccccc2)O1` [Example 8, 1-((4S,5S)-2,2-Dimethyl-4-phenyl-[1,3]dioxan-5-yl)-3-(2-trifluoromethyl-phenyl)-urea], the inhibitory constant (Ki) came to 0.076 µM. As for `Cc1cc(NC(=O)N[C@H]2COC(C)(C)O[C@H]2c2ccccc2)ccc1Br` [Example 9, 1-(4-Bromo-3-methyl-phenyl)-3-((4S,5S)-2,2-dimethyl-4-phenyl-[1,3]dioxan-5-yl)-urea], the inhibitory constant (Ki) stood at 0.087 µM. With `CC1(C)OC[C@H](NC(=O)Nc2cc(Cl)ccc2Cl)[C@H](c2ccccc2)O1` [Example 10, 1-(2,5-Dichloro-phenyl)-3-((4S,5S)-2,2-dimethyl-4-phenyl-[1,3]dioxan-5-yl)-urea], the Ki was determined as 0.098 µM. Turning to `Cc1ccc(C)c(NC(=O)N[C@H]2COC(C)(C)O[C@H]2c2ccccc2)c1` [Example 11, 1-(2,5-Dimethyl-phenyl)-3-((4S,5S)-2,2-dimethyl-4-phenyl-[1,3]dioxan-5-yl)-urea], the Ki came to 0.064 µM. As for `CC1(C)OC[C@H](NC(=O)Nc2ccccc2-c2cccs2)[C@H](c2ccccc2)O1` [Example 13, 1-((4S,5S)-2,2-Dimethyl-4-phenyl-[1,3]dioxan-5-yl)-3-(2-thiophen-2-yl-phenyl)-urea], the figure is 0.034 µM. As for `CC1(C)OC[C@H](NC(=O)Nc2ccccc2-c2cccc(Cl)c2)[C@H](c2ccccc2)O1` [Example 14, 1-(3′-Chloro-biphenyl-2-yl)-3-((4S,5S)-2,2-dimethyl-4-phenyl-[1,3]dioxan-5-yl)-urea], the Ki was 0.063 µM.

Take `CC1(C)OC[C@H](NC(=O)Nc2ccccc2-c2ccsc2)[C@H](c2ccccc2)O1` [Example 15, 1-((4S,5S)-2,2-Dimethyl-4-phenyl-[1,3]dioxan-5-yl)-3-(2-thiophen-3-yl-phenyl)-urea]: the Ki amounted to 0.1 µM.

Regarding `CC1(C)OC[C@H](NC(=O)Nc2ccccc2-c2ccccc2)[C@H](c2ccccc2)O1` [Example 16, 1-Biphenyl-2-yl-3-((4S,5S)-2,2-dimethyl-4-phenyl-[1,3]dioxan-5-yl)-urea], the inhibitory constant (Ki) was 0.056 µM. `CC1(C)OC[C@H](NC(=O)Nc2cc(C(F)(F)F)ccc2Cl)[C@H](c2ccccc2)O1` [Example 17, 1-(2-Chloro-5-trifluoromethyl-phenyl)-3-((4S,5S)-2,2-dimethyl-4-phenyl-[1,3]dioxan-5-yl)-urea]: the Ki was 0.12 µM. For `CC1(C)OC[C@H](NC(=O)Nc2ccccc2C#N)[C@H](c2ccccc2)O1` [Example 20, 1-(2-Cyano-phenyl)-3-((4S,5S)-2,2-dimethyl-4-phenyl-[1,3]dioxan-5-yl)-urea], the inhibition constant Ki was found to be 0.06 µM. `CC1(C)OC[C@H](NC(=O)Nc2ccccc2Oc2ccccc2)[C@H](c2ccccc2)O1` [Example 21, 1-((4S,5S)-2,2-Dimethyl-4-phenyl-[1,3]dioxan-5-yl)-3-(2-phenoxy-phenyl)-urea]: the inhibitory constant (Ki) was determined as 0.21 µM. The figure for `CC1(C)OC[C@H](/N=C(\S)Nc2ccc(Cl)cc2Cl)[C@H](c2ccccc2)O1` [Example 22, 1-(2,4-Dichloro-phenyl)-3-((4S,5S)-2,2-dimethyl-4-phenyl-[1,3]dioxan-5-yl)-thiourea] is 0.28 µM; for `CC1(C)OC[C@H](NC(=O)Nc2ccccc2-c2cccnc2)[C@H](c2ccccc2)O1` [Example 23, 1-((4S,5S)-2,2-Dimethyl-4-phenyl-[1,3]dioxan-5-yl)-3-(2-pyridin-3-yl-phenyl)-urea] it is 0.32 µM; for `CC1(C)OC[C@H](/N=C(\S)Nc2ccccc2Br)[C@H](c2ccccc2)O1` [Example 24, 1-(2-Bromo-phenyl)-3-((4S,5S)-2,2-dimethyl-4-phenyl-[1,3]dioxan-5-yl)-thiourea] it is 0.54 µM. As to `O=C(Nc1ccc(Br)cc1Br)N[C@H]1COC2(CCCCC2)O[C@H]1c1ccccc1` [Example 25, 1-(2,4-Dibromo-phenyl)-3-((2S,3S)-2-phenyl-1,5-dioxa-spiro[5.5]undec-3-yl)-urea], the Ki came to 0.7 µM. Turning to `O=C(Nc1ccccc1Br)N[C@H]1COC2(CCCCC2)O[C@H]1c1ccccc1` [Example 26, 1-(2-Bromo-phenyl)-3-((2S,3S)-2-phenyl-1,5-dioxa-spiro[5.5]undec-3-yl)-urea], the inhibitory constant (Ki) is 0.98 µM.

As to `Cc1ccc(/N=C(\NC#N)N[C@H]2COC(C)(C)O[C@H]2c2ccccc2)c(Br)c1` [Example 27, N-(2-Bromo-4-methyl-phenyl)-N′-((4S,5S)-2,2-dimethyl-4-phenyl-[1,3]dioxan-5-yl)-N″-cyanoguanidine], the Ki stood at 1 µM. As to `CC1(c2ccccc2)OC[C@H](NC(=O)Nc2ccccc2Br)[C@H](c2ccccc2)O1` (stereo partly drawn) [Example 28, 1-(2-Bromo-phenyl)-3-((4S,5S)-2-methyl-2,4-diphenyl-[1,3]dioxan-5-yl)-urea], the inhibition constant Ki is 2.6 µM.

Take `Cc1ccc(NC(=O)N[C@H]2COC(C)(C)O[C@H]2c2ccccc2)c(C)c1` [Example 29, 1-(2,4-Dimethyl-phenyl)-3-((4S,5S)-2,2-dimethyl-4-phenyl-[1,3]dioxan-5-yl)-urea]: the Ki is 0.2 µM. The figure for `CC1(C)OC[C@H](NC(=O)Nc2ccccc2Cl)[C@H](c2ccccc2)O1` [Example 30, 1-(2-Chloro-phenyl)-3-((4S,5S)-2,2-dimethyl-4-phenyl-[1,3]dioxan-5-yl)-urea] is 0.3 µM; for `CC1(C)OC[C@H](NC(=O)Nc2ccccc2F)[C@H](c2ccccc2)O1` [Example 31, 1-((4S,5S)-2,2-Dimethyl-4-phenyl-[1,3]dioxan-5-yl)-3-(2-fluoro-phenyl)-urea] it is 1.55 µM; for `Cc1ccccc1NC(=O)N[C@H]1COC(C)(C)O[C@H]1c1ccccc1` [Example 32, 1-((4S,5S)-2,2-Dimethyl-4-phenyl-[1,3]dioxan-5-yl)-3-o-tolyl-urea] it is 0.65 µM. In the case of `CC1(C)OC[C@H](NC(=O)Nc2ccccc2[N+](=O)[O-])[C@H](c2ccccc2)O1` [Example 33, 1-((4S,5S)-2,2-Dimethyl-4-phenyl-[1,3]dioxan-5-yl)-3-(2-nitro-phenyl)-urea], the Ki turned out to be 0.58 µM. The figure for `CC1(C)OC[C@H](NC(=O)Cc2ccccc2Br)[C@H](c2ccccc2)O1` [Example 34, 2-(2-Bromo-phenyl)-N-((4S,5S)-2,2-dimethyl-4-phenyl-[1,3]dioxan-5-yl)-acetamide] is 2.2 µM. As for `CC1(C)OC[C@H](NC(=O)Oc2ccccc2Cl)[C@H](c2ccccc2)O1` [Example 35, ((4S,5S)-2,2-Dimethyl-4-phenyl-[1,3]dioxan-5-yl)-carbamic acid 2-chloro-phenyl ester], the Ki was found to be 2.6 µM. On to `CC1(C)OC[C@H](NC(=O)Nc2ccc(Br)cc2)[C@H](c2ccccc2)O1` [Example 36, 1-(4-Bromo-phenyl)-3-((4S,5S)-2,2-dimethyl-4-phenyl-[1,3]dioxan-5-yl)-urea], for which the Ki came to 1.4 µM. For `COc1ccccc1NC(=O)N[C@H]1COC(C)(C)O[C@H]1c1ccccc1` [Example 37, 1-((4S,5S)-2,2-Dimethyl-4-phenyl-[1,3]dioxan-5-yl)-3-(2-methoxy-phenyl)-urea], the inhibition constant (Ki) amounted to 6 µM.

Take `CC1(C)OC[C@H](NC(=O)Nc2ccc(-c3cccnc3)cc2)[C@H](c2ccccc2)O1` [Example 38, 1-((4S,5S)-2,2-Dimethyl-4-phenyl-[1,3]dioxan-5-yl)-3-(4-pyridin-3-yl-phenyl)-urea]: the inhibition constant Ki was found to be 0.32 µM. On to `CC1(C)OC[C@H](NC(=O)Nc2ccc(Cl)cc2)[C@H](c2ccccc2)O1` [Example 39, 1-(4-Chloro-phenyl)-3-((4S,5S)-2,2-dimethyl-4-phenyl-[1,3]dioxan-5-yl)-urea], for which the inhibitory constant (Ki) turned out to be 0.3 µM.
